Results on eight compounds are retold here after paper PMC6277434, “Discovery of a potent HMG-CoA reductase degrader that eliminates statin-induced reductase accumulation and lowers cholesterol” (Nature Communications, 2018).

Structures are written as SMILES.

Assay [1] addresses T1, HMGCR (TM1-8)-GFP (Cricetulus griseus, UniProt P00347).
T1 sequence (P00347 1-346): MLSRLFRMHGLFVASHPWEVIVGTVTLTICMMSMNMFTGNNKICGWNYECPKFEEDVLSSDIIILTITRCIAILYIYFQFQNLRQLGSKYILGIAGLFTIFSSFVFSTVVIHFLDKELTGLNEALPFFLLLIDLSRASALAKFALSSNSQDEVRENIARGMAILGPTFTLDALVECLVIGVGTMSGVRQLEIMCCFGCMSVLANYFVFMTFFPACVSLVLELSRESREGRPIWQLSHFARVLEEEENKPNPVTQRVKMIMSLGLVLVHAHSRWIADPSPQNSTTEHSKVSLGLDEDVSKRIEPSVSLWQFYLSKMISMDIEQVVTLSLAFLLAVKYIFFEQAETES

The target in assay [2] is T1, HMGCR (TM1-8)-GFP. Put plainly: HMGCR (TM1-8)-GFP fluorescent assay (high-content imaging) in CHG cells. To be noted: read-out: Mean (HMGCR (TM1-8)-GFP signal relative to 0 μM = 100).

Regarding `C[C@H](CCCCO)C1CCC2C3C(CC[C@@]21C)[C@@]1(C)CC[C@H](O)C(C)(C)C1=C[C@@H]3O` (stereo partly shown) [Compound 74], the DC50 in assay [1] is 4520 nM. Moreover, in assay [2], the remaining activity at 0.156 µM is 96.8%, the remaining activity at 0.313 µM stood at 94.2%, the remaining activity at 0.625 µM amounted to 92.9% and the remaining activity at 1.25 µM was found to be 83.2%. Further, in assay [2], the remaining activity at 2.5 µM stood at 62.6%, the remaining activity at 5 µM is 44.4% and the remaining activity at 10 µM was 33%.
The compound `COCCCC[C@@H](C)C1CCC2C3C(CC[C@@]21C)[C@@]1(C)CC[C@H](O)C(C)(C)C1=C[C@@H]3O` (stereo partly shown) [Compound 78] registered a DC50 in assay [1] of 1850 nM. Moreover, in assay [2], the remaining activity at 0.156 µM was determined as 105%, the remaining activity at 0.313 µM is 98%, the remaining activity at 0.625 µM worked out at 81.1% and the remaining activity at 1.25 µM was found to be 60.7%. Further, in assay [2], the remaining activity at 2.5 µM is 36.9%, the remaining activity at 5 µM turned out to be 21.4% and the remaining activity at 10 µM came to 15.7%.
For the compound `C[C@H](CCCC(C)(C)O)C1CCC2C3C(CC[C@@]21C)[C@@]1(C)CC[C@H](O)C(C)(C)C1=C[C@@H]3O` (stereo partly shown) [Compound 79], the DC50 in assay [1] amounted to 640 nM. Besides, in assay [2], the remaining activity at 0.156 µM worked out at 87.9%, the remaining activity at 0.313 µM stood at 77.2%, the remaining activity at 0.625 µM came out at 59.3% and the remaining activity at 1.25 µM is 38.6%. In addition, in assay [2], the remaining activity at 2.5 µM stood at 23.5%, the remaining activity at 5 µM is 16.1% and the remaining activity at 10 µM amounted to 12.2%.
For the compound `CCC(O)(CC)CCC[C@@H](C)C1CCC2C3C(CC[C@@]21C)[C@@]1(C)CC[C@H](O)C(C)(C)C1=C[C@@H]3O` (stereo partly shown) [Compound 80], in assay [1], the DC50 was determined as 550 nM. Also, in assay [2], the remaining activity at 0.156 µM amounted to 85.3%, the remaining activity at 0.313 µM turned out to be 75.8%, the remaining activity at 0.625 µM worked out at 58.1% and the remaining activity at 1.25 µM amounted to 33.7%. In assay [2], the remaining activity at 2.5 µM amounted to 18.3%, the remaining activity at 5 µM stood at 12.1% and the remaining activity at 10 µM came to 10.3%.
Take `CC(O)CCC[C@@H](C)C1CCC2C3C(CC[C@@]21C)[C@@]1(C)CC[C@H](O)C(C)(C)C1=C[C@@H]3O` (stereo partly shown) [Compound 86]: the DC50 in assay [1] is 2170 nM. In addition, in assay [2], the remaining activity at 0.156 µM is 96.6%, the remaining activity at 0.313 µM came to 88.8%, the remaining activity at 0.625 µM is 78.7% and the remaining activity at 1.25 µM worked out at 64.4%. In assay [2], the remaining activity at 2.5 µM was found to be 44.4%, the remaining activity at 5 µM stood at 28.4% and the remaining activity at 10 µM came out at 19.7%.
In turn, `CCC(O)CCC[C@@H](C)C1CCC2C3C(CC[C@@]21C)[C@@]1(C)CC[C@H](O)C(C)(C)C1=C[C@@H]3O` (stereo partly shown) [Compound 87] had a DC50 in assay [1] of 1080 nM. Further, in assay [2], the remaining activity at 0.156 µM amounted to 91.3%, the remaining activity at 0.313 µM came out at 78.3%, the remaining activity at 0.625 µM turned out to be 62.1% and the remaining activity at 1.25 µM was found to be 43.1%. Besides, in assay [2], the remaining activity at 2.5 µM came out at 26.7%, the remaining activity at 5 µM came to 20.1% and the remaining activity at 10 µM stood at 18.9%.
As for `C=CCC(O)CCC[C@@H](C)C1CCC2C3C(CC[C@@]21C)[C@@]1(C)CC[C@H](O)C(C)(C)C1=C[C@@H]3O` (stereo partly shown) [Compound 88], the DC50 in assay [1] came to 910 nM. Besides, in assay [2], the remaining activity at 0.156 µM was determined as 82.3%, the remaining activity at 0.313 µM turned out to be 75.6%, the remaining activity at 0.625 µM was determined as 67.9% and the remaining activity at 1.25 µM is 37.1%. In addition, in assay [2], the remaining activity at 2.5 µM was 17.6%, the remaining activity at 5 µM is 12% and the remaining activity at 10 µM was determined as 16.6%.
In assay [1], `C[C@H](CCCCC(=O)O)C1CCC2C3C(CC[C@@]21C)[C@@]1(C)CC[C@H](O)C(C)(C)C1=C[C@@H]3O` (stereo partly shown) [Compound 92] yielded a DC50 of 12300 nM. Moreover, in assay [2], the remaining activity at 0.156 µM turned out to be 104%, the remaining activity at 0.313 µM came out at 98.4%, the remaining activity at 0.625 µM was determined as 98.7% and the remaining activity at 1.25 µM was determined as 96.3%. Also, in assay [2], the remaining activity at 2.5 µM amounted to 87%, the remaining activity at 5 µM amounted to 71.8% and the remaining activity at 10 µM amounted to 58%.
